From patent US20230322785A1, “ADENOSINE A2A AND A2B RECEPTOR DUAL ANTAGONISTS FOR IMMUNO-ONCOLOGY” (Merck Sharp & Dohme LLC, priority 2020, published 2023)

biological target: T1, human A2A adenosine receptor (Homo sapiens, UniProt P29274); test: A2A binding affinity, Method (B): scintillation proximity assay (SPA) with [3H]SCH58261; conditions: membranes of HEK293 or CHO cells expressing the human receptor
T1 construct: expressed in transfected cells; host or cells: HEK293 or CHO cells
Source text: Method (A) describes the procedure used to measure A2A binding affinity using radioligand binding. Method (B) describes the procedure used to measure A2A binding affinity using SPA technology. The method used to measure A2B binding affinity is also described below. The method used to determine the A2A IC50 value reported for each compound in the table is indicated next to the reported value. The A2B IC50 value measured using the A2B binding affinity assay is shown in the table next to the compound under the corresponding A2A value.
The A2A receptor affinity binding assay measured the amount of binding of a tritiated ligand with high affinity for the A2A adenosine receptor to membranes made from HEK293 or CHO cells recombinantly expressing the human A2A adenosine receptor, in the presence of varying concentrations of a compound of the invention. The data were generated using either filtration binding or a homogenous scintillation proximity assay (SPA).
Method (B): Measurement of A2A Binding Affinity Using SPA
Binding affinity using SPA was conducted as follows. Test compounds (50 nL) were dispensed into individual wells of a 384-well OptiPlate™ well (Perkin Elmer) by Echo® acoustic liquid transfer (Labcyte). 20 µL of 1.25 nM [^3H] SCH58261 ((7-(2-phenylethyl)-5-amino-2-(2-furyl)-pyrazolo-[4,3-e]-1,2,4-triazolo[1,5-c]pyrimidine)) in DPBS assay buffer (Dulbecco’s phosphate buffered saline without calcium and magnesium, ThermoFisher Scientific, Cat. No. A1285601) supplemented with 10 mM MgCl2 was added. A2A receptor-expressing membranes were incubated with 20 µg/mL adenosine deaminase (Roche, Cat. No. 10 102 105 001) for 15 min at room temperature. The receptor-expressing membranes were then combined with wheat germ agglutinin-coated yttrium silicate SPA beads (GE Healthcare, Cat. No. RPNQ0023) in a ratio of […] (w/w) and incubated for 30 min at room temperature. 30 µL of the membrane/bead mixture (0.25 µg and 25 µg per well respectively) were added to the 384-well OptiPlate™ well. To define total and non-specific binding, wells containing 1% DMSO or 1 µM CGS 15943 (Tocris Bioscience, Cat. No. 1699) respectively were also included in the experiment. The plate was incubated for 1 h at room temperature with agitation. The assay plate was then incubated for an h to allow the beads to settle before data were collected using a TopCount® (Perkin Elmer) scintillation counter. After normalization to total and non-specific binding, the percent effect at each compound concentration was calculated. The plot of percent effect versus the log of compound concentration was analyzed electronically using a 4-parameter logistic fit based on the Levenberg-Marquardt algorithm to generate IC50 values.

T1 sequence (P29274 whole entry): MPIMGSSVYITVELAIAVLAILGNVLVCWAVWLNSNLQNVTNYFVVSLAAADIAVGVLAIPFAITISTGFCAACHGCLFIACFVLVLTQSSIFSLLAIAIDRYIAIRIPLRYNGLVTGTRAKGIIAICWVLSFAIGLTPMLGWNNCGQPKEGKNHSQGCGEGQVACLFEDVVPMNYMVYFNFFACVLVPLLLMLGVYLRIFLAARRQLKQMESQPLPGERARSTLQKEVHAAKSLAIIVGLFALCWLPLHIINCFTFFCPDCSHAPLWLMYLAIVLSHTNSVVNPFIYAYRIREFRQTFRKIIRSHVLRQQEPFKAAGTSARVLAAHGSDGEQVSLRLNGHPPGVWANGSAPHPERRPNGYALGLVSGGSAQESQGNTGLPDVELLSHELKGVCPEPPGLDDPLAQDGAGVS

Compound | IC50
COc1cccc2c1nc(N)n1nc(CN(Cc3ccc(OC(F)(F)F)cc3)C(=O)NC(C)C)nc21 [Example 20.3, 1-((5-amino-7-methoxy-[1,2,4]triazolo[1,5-c]quinazolin-2-yl)methyl)-3-isopropyl-1-(4-(trifluoromethoxy)benzyl)urea] | 22.6 nM
COc1cccc2c1nc(N)n1nc(CC(=O)NCc3ccc(OC(F)(F)F)cc3)nc21 [Example 4.5, 2-(5-amino-7-methoxy-[1,2,4]triazolo[1,5-c]quinazolin-2-yl)-N-(4-(trifluoromethoxy)benzyl)acetamide] | 5.8 nM
COc1cccc2c1nc(N)n1nc(CNCc3ccc(C(C)(C)C)cc3)nc21 [Example 7.6, 2-(((4-(tert-butyl)benzyl)amino)methyl)-7-methoxy-[1,2,4]triazolo[1,5-c]quinazolin-5-amine] | 4.3 nM
COc1cccc2c1nc(N)n1nc(CN(CCc3ccc(C(F)(F)F)cc3)CC3CCC3)nc21 [Example 15.12, 2-(((cyclobutylmethyl)(4-(trifluoromethyl)phenethyl)amino)methyl)-7-methoxy-[1,2,4]triazolo[1,5-c]quinazolin-5-amine] | 23.6 nM
COc1cccc2c1nc(N)n1nc(CC(=O)N[C@H]3CCOc4ccncc43)nc21 [Example 4.8, (S)-2-(5-amino-7-methoxy-[1,2,4]triazolo[1,5-c]quinazolin-2-yl)-N-(3,4-dihydro-2H-pyrano[3,2-c]pyridin-4-yl)acetamide] | 111 nM
C=CCN(Cc1ccc(C(F)(F)F)cc1)Cc1nc2c3cccc(OC)c3nc(N)n2n1 [Example 21.1, 2-((allyl(4-(trifluoromethyl)benzyl)amino)methyl)-7-methoxy-[1,2,4]triazolo[1,5-c]quinazolin-5-amine] | 11.1 nM
COc1cccc2c1nc(N)n1nc(CN(CCC(C)C)Cc3ccc(C(F)(F)F)cc3)nc21 [Example 15.5, 2-((isopentyl(4-(trifluoromethyl)benzyl)amino)methyl)-7-methoxy-[1,2,4]triazolo[1,5-c]quinazolin-5-amine] | 101 nM
COc1cccc2c1nc(N)n1nc(CN(CC(C)O)CC(C)O)nc21 (centres unmarked) [Example 10.13, 1,1-(((5-amino-7-methoxy-[1,2,4]triazolo[1,5-c]quinazolin-2-yl)methyl)azanediyl)bis(propan-2-ol)] | 32.2 nM
COc1cccc2c1nc(N)n1nc(CCNCc3ccccc3C(F)(F)F)nc21 [Example 22.6, 7-methoxy-2-(2-((2-(trifluoromethyl)benzyl)amino)ethyl)-[1,2,4]triazolo[1,5-c]quinazolin-5-amine] | 9.7 nM
COc1cccc2c1nc(N)n1nc(CN[C@H](C)c3ccc(C(F)(F)F)cc3)nc21 [Example 8.2, (R)-7-methoxy-2-(((1-(4-(trifluoromethyl)phenyl)ethyl)amino)methyl)-[1,2,4]triazolo[1,5-c]quinazolin-5-amine] | 22.4 nM
COc1cccc2c1nc(N)n1nc(CN(CC(C)F)CC(C)F)nc21 (centres unmarked) [Example 13.1, 2-((bis(2-fluoropropyl)amino)methyl)-7-methoxy-[1,2,4]triazolo[1,5-c]quinazolin-5-amine] | 3.3 nM
COc1cccc2c1nc(N)n1nc(CN(Cc3cccc(Br)n3)CC3CC3)nc21 [Example 16.3, 2-((((6-bromopyridin-2-yl)methyl)(cyclopropylmethyl)amino)methyl)-7-methoxy-[1,2,4]triazolo[1,5-c]quinazolin-5-amine] | 14.6 nM
COc1cccc2c1nc(N)n1nc(CN(Cc3ccc(C(F)(F)F)cc3)S(=O)(=O)C3CC3)nc21 [Example 19.5, N-((5-amino-7-methoxy-[1,2,4]triazolo[1,5-c]quinazolin-2-yl)methyl)-N-(4-(trifluoromethyl)benzyl)cyclopropanesulfonamide] | 17.6 nM
COc1cccc2c1nc(N)n1nc(CCNCC(C)(F)F)nc21 [Example 23.3, 2-(2-((2,2-difluoropropyl)amino)ethyl)-7-methoxy-[1,2,4]triazolo[1,5-c]quinazolin-5-amine] | 12.2 nM
CCN(Cc1ccccn1)Cc1nc2c3cccc(OC)c3nc(N)n2n1 [Example 7.4, 2-((ethyl(pyridin-2-ylmethyl)amino)methyl)-7-methoxy-[1,2,4]triazolo[1,5-c]quinazolin-5-amine] | 31.4 nM
COc1cccc2c1nc(N)n1nc(CN(Cc3cccc4ncccc34)CC3CC3)nc21 [Example 16.16, 2-(((cyclopropylmethyl)(quinolin-5-ylmethyl)amino)methyl)-7-methoxy-[1,2,4]triazolo[1,5-c]quinazolin-5-amine] | 3.5 nM
CCN(Cc1nc2c3cccc(OC)c3nc(N)n2n1)CC1CCN(c2ncc(F)cn2)CC1 [Example 15.16, 2-((ethyl((1-(5-fluoropyrimidin-2-yl)piperidin-4-yl)methyl)amino)methyl)-7-methoxy-[1,2,4]triazolo[1,5-c]quinazolin-5-amine] | 31 nM
COc1cccc2c1nc(N)n1nc(CN(Cc3ccc(C(F)(F)F)cc3)C(=O)NC(C)C)nc21 [Example 20.2, 1-((5-amino-7-methoxy-[1,2,4]triazolo[1,5-c]quinazolin-2-yl)methyl)-3-isopropyl-1-(4-(trifluoromethyl)benzyl)urea] | 50.7 nM
COc1cccc2c1nc(N)n1nc(CN[C@H](C)[C@@H](O)c3cc(C(F)(F)F)cc(C(F)(F)F)c3)nc21 [Example 10.1, (1S,2R)-2-(((5-amino-7-methoxy-[1,2,4]triazolo[1,5-c]quinazolin-2-yl)methyl)amino)-1-(3,5-bis(trifluoromethyl)phenyl)propan-1-ol] | 40.2 nM
COc1cccc2c1nc(N)n1nc(CN(Cc3ccc(OC(F)(F)F)cc3)CC3CCCC3)nc21 [Example 15.9, 2-(((cyclopentylmethyl)(4-(trifluoromethoxy)benzyl)amino)methyl)-7-methoxy-[1,2,4]triazolo[1,5-c]quinazolin-5-amine] | 123 nM
COc1cccc2c1nc(N)n1nc(C[C@@H](C)NCc3oc(C)nc3C)nc21 [Example 24.3, (R)-2-(2-(((2,4-dimethyloxazol-5-yl)methyl)amino)propyl)-7-methoxy-[1,2,4]triazolo[1,5-c]quinazolin-5-amine] | 11.1 nM
COc1cccc2c1nc(N)n1nc(CN(CCC(F)(F)F)CC3CCN(c4ncc(F)cn4)CC3)nc21 [Example 14.4, 2-((((1-(5-fluoropyrimidin-2-yl)piperidin-4-yl)methyl)(3,3,3-trifluoropropyl)amino)methyl)-7-methoxy-[1,2,4]triazolo[1,5-c]quinazolin-5-amine] | 38.2 nM
COc1cccc2c1nc(N)n1nc(CN(C)CCc3ccc(C(F)(F)F)cc3)nc21 [Example 15.13, 7-methoxy-2-((methyl(4-(trifluoromethyl)phenethyl)amino)methyl)-[1,2,4]triazolo[1,5-c]quinazolin-5-amine] | 7.9 nM
COc1cccc2c1nc(N)n1nc(CN(CC(F)F)CC3CC3)nc21 [Example 17.1, 2-(((cyclopropylmethyl)(2,2-difluoroethyl)amino)methyl)-7-methoxy-[1,2,4]triazolo[1,5-c]quinazolin-5-amine] | 2.5 nM
COc1cccc2c1nc(N)n1nc(CN(Cc3ccc(C(F)(F)F)cc3)CC3CC3)nc21 [Example 15.2, 2-(((cyclopropylmethyl)(4-(trifluoromethyl)benzyl)amino)methyl)-7-methoxy-[1,2,4]triazolo[1,5-c]quinazolin-5-amine] | 3 nM
CCNCc1nc2c3cccc(OC)c3nc(N)n2n1 [Example 10.4, 2-((ethylamino)methyl)-7-methoxy-[1,2,4]triazolo[1,5-c]quinazolin-5-amine] | 46 nM
COc1cccc2c1nc(N)n1nc(CNC(C)c3ncc(-c4ccc(F)cc4)o3)nc21 (single isomer, unassigned) [Example 10.15, (S or R)-2-(((1-(5-(4-fluorophenyl)oxazol-2-yl)ethyl)amino)methyl)-7-methoxy-[1,2,4]triazolo[1,5-c]quinazolin-5-amine] | 44.3 nM
COc1cccc2c1nc(N)n1nc(CNCc3ccccc3C(F)(F)F)nc21 [Example 8.4, 7-methoxy-2-(((2-(trifluoromethyl)benzyl)amino)methyl)-[1,2,4]triazolo[1,5-c]quinazolin-5-amine] | 3.2 nM
COc1cccc2c1nc(N)n1nc(CNCCc3ccc(C(F)(F)F)cc3)nc21 [Example 8.8] | 17.3 nM
